Results reported in PubChem BioAssay (NCI).
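Grown in 96-well plates, cells were treated for 48 hours with each compound at five concentrations. Insufficient inhibition: endpoint recorded as highest concentration tested. The concentration for full growth arrest is given as TGI.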

Legend:
Test in all cases: growth of human tumour cells (NCI), 48 h
SW-620 colon = tested on: SW-620 colon
HT29 colon = tested on: HT29 colon
SNB-19 CNS = tested on: SNB-19 CNS
SF-539 CNS = tested on: SF-539 CNS
NCI-H522 lung = tested on: NCI-H522 lung
SK-OV-3 ovarian = tested on: SK-OV-3 ovarian
786-0 renal = tested on: 786-0 renal
A549 NSCLC = tested on: A549 NSCLC
MALME-3M melanoma = tested on: MALME-3M melanoma
MDA-MB-231 breast = tested on: MDA-MB-231 breast
UO-31 renal = tested on: UO-31 renal
MDA-N = tested on: MDA-N
HL-60(TB) leukemia = tested on: HL-60(TB) leukemia
SN12C renal = tested on: SN12C renal
OVCAR-3 ovarian = tested on: OVCAR-3 ovarian
A498 renal = tested on: A498 renal
CCRF-CEM leukemia = tested on: CCRF-CEM leukemia
UACC-62 melanoma = tested on: UACC-62 melanoma
SF-268 CNS = tested on: SF-268 CNS
OVCAR-5 ovarian = tested on: OVCAR-5 ovarian
IGROV1 ovarian = tested on: IGROV1 ovarian
HS 578T breast = tested on: HS 578T breast
SK-MEL-2 melanoma = tested on: SK-MEL-2 melanoma
PC-3 prostate = tested on: PC-3 prostate
SK-MEL-28 melanoma = tested on: SK-MEL-28 melanoma
SNB-75 CNS = tested on: SNB-75 CNS
HCT-116 colon = tested on: HCT-116 colon
TK-10 renal = tested on: TK-10 renal
LOX IMVI melanoma = tested on: LOX IMVI melanoma
RXF 393 renal = tested on: RXF 393 renal
HOP-62 NSCLC = tested on: HOP-62 NSCLC
SF-295 CNS = tested on: SF-295 CNS
SR leukemia = tested on: SR leukemia
CAKI-1 renal = tested on: CAKI-1 renal
DU-145 prostate = tested on: DU-145 prostate
MDA-MB-435 = tested on: MDA-MB-435
RPMI-8226 leukemia = tested on: RPMI-8226 leukemia
SK-MEL-5 melanoma = tested on: SK-MEL-5 melanoma
UACC-257 melanoma = tested on: UACC-257 melanoma
NCI-H460 lung = tested on: NCI-H460 lung
ACHN renal = tested on: ACHN renal
NCI/ADR-RES ovarian = tested on: NCI/ADR-RES ovarian
T-47D breast = tested on: T-47D breast
HCT-15 colon = tested on: HCT-15 colon
MOLT-4 leukemia = tested on: MOLT-4 leukemia
HCC-2998 colon = tested on: HCC-2998 colon
OVCAR-4 ovarian = tested on: OVCAR-4 ovarian
K-562 leukemia = tested on: K-562 leukemia
NCI-H23 lung = tested on: NCI-H23 lung
NCI-H226 lung = tested on: NCI-H226 lung
EKVX NSCLC = tested on: EKVX NSCLC
COLO 205 colon = tested on: COLO 205 colon
KM12 colon = tested on: KM12 colon
M14 melanoma = tested on: M14 melanoma
OVCAR-8 ovarian = tested on: OVCAR-8 ovarian
HOP-92 NSCLC = tested on: HOP-92 NSCLC
MCF7 breast = tested on: MCF7 breast
U251 CNS = tested on: U251 CNS

Measured: TGI

COc1cc2nn(-c3ccccc3)nc2c2nonc12
not listed: OVCAR-8 ovarian | HOP-92 NSCLC | MCF7 breast | U251 CNS
> 100 µM: all other assays above

O=C(NC(O)(C(F)(F)F)C(F)(F)F)c1ccccc1
not listed: UACC-62 melanoma
> 100 µM: all other assays above
